Experiments:
[1] = system: human lung epithelial cells (A549 cell line); experiment: TGF-β1-induced epithelial mesenchymal transition (EMT) in A549 cells; assay type: cell-based
Procedure: Murine NIH3T3 fibroblasts and human lung epithelial cells (A549 cells) were purchased from the Bioresource Collection and Research Center (Hsinchu, Taiwan). Cells were cultured in Dulbecco's modified eagle medium (DMEM) containing 10% fetal bovine serum (FBS), 100 μg/mL penicillin, 100 μg/mL streptomycin. Cells were cultured at 37° C. in a humidified atmosphere of 5% CO2 and passaged every 4 to 5 days at 1:4 ratios.
Whole-cell extracts were obtained via RIPA buffer (Millipore, USA) and protein concentrations were quantified via a BCA protein assay kit (Thermo Fisher Scientific, USA). 20 or 25 μg of protein was added to various percentages of SDS-sodium dodecyl sulfate-acrylamide gel and blotted onto a polyvinylidene fluoride (PVDF) membrane. The membrane was then reacted with a primary antibody; after extensive washing, the membrane was reacted with a […] containing a second antibody. Proteins were detected by Immobilon Western Chemiluminescent HRP substrate (Millipore, USA) or ECL detection system (UVP Corporation, USA).
Antibodies for immunoblotting techniques such as anti-E-cadherin, anti-Fibronectin, anti-N-cadherin were purchased from Abcam (UK). Other antibodies such as anti-SHP-1, anti-phosphorylated STAT3(Tyr705), anti-STAT3α-smooth muscle actin (α-SMA) and anti-caspase-9 were purchased from Cell Signaling Corporation ([…], United States).
Smart-pool siRNA, including control (sc-37007) siRNA, siRNA anti-SHP-1, and STAT3, were purchased from Santa Cruz Biotechnology (California, USA).

[2] = system: PDGFR and STAT3 pathways in HSC-T6 cells; experiment: Western blot of signalling proteins in HSC-T6 cells; assay type: cell-based, rat
Procedure: Rat immortal hepatic stellate cell line HSC-T6 and LX2 human hepatic stellate cell line were provided by Professor Scott Friedman of Mount Sinai Hospital in New York, USA. The primary mouse HSCs were obtained via the way: after intubating the hepatic portal vein of the mouse, the cells were perfused with Leffert's and ethylene glycol bis-aminoethyl ether tetraacetic acid (EGTA) buffer in situ, and then collagenase was injected to digest the liver tissue, and then the primary mouse HSCs were isolated by Histodnz gradient. HSC-T6 cells were cultured in Waymouth medium; LX2 cells and primary mouse HSCs were cultured in Dulbecco's Modified Eagle Medium (DMEM) containing 10% fetal bovine serum (FBS), 100 μg/mL penicillin, 100 μg/mL streptomycin, and 2 mM L-glutamine HSC-T6 cells, LX2 cells and primary mouse HSCs were cultured in a humidified incubator containing 5% carbon dioxide at 37° C. After adding the FBS, the resting HSC is started. […]
Whole-cell extracts were obtained via RIPA buffer (Millipore, USA) and protein concentrations were quantified via a BCA protein assay kit (Thermo Fisher Scientific, USA). […] Proteins were detected by Immobilon Western Chemiluminescent HRP substrate (Millipore, USA) or ECL detection system (UVP Corporation, USA). […]

N#Cc1ccc(Oc2cccc(NC(=O)Nc3ccc(Cl)c(C(F)(F)F)c3)c2)cc1 [1-[4-chloro-3-(trifluoromethyl)phenyl]-3-[3-(4-cyanophenoxy)phenyl]urea]
effects of the compound (p-STAT3, EMT marker, migration and invasion) after SHP-1 knock out with siRNA ([1]; A549, FIG. 9B): offset the effects | effects of the compound (EMT marker, migration and invasion) after STAT3 knock out ([1]; A549, FIG. 9C): offset the effects | TGF-β1-induced EMT (EMT marker profile) ([1]; A549 exposed to TGF-β1, FIG. 8B): reversed TGF-β1-induced EMT in a dose-dependent manner | migration and invasion of cells ([1]; A549 exposed to TGF-β1, FIGS. 8C and 8D): reduced | p-PDGFR and p-Akt in the PDGFR pathway ([2]; 10 μM for 4 hours, then PDGF-BB 100 ng/mL 10 minutes, FIG. 14E): downregulated | downregulation of p-STAT3 and cyclin D1, compared with sorafenib ([2]; FIG. 15A): more significant dose-escalation effects on the downregulation
